# From ChEMBL document CHEMBL5385961, “In vitro and in vivo evaluation of novel chromeno[2,3-d]pyrimidinones as therapeutic agents for triple negative breast cancer” (RSC Med Chem, 2024)
# Active and inactive are the calls of the source. The calls are words filed in the database; no cut-off is given here.
# How the values were obtained:
# Hs-578T [1] = test: Antitumor activity against human Hs-578T cells implanted in chick eggs assessed as tumor growth regression at 2 times IC50 administered starting from day 13 and measured 17 days post embryo development by stereomicroscopic analysis; assay type: functional, cell-based; settings: time 5.0 day
# [2] = Toxicity in wild type Caenorhabditis elegans N2 assessed as drug tolerance at 0.0001 to 50 uM; settings: dose 0.0001-50 µM
# Hs-578T [3] = test: Cytotoxicity against human Hs-578T cells assessed as inhibition of cell growth incubated for 72 hrs by SRB assay; assay type: functional, cell-based
# [4] = Toxicity in wild type C57BL/6J mouse assessed as effect on vertical activity at 10 to 50 mg/kg, ip administered daily for 7 days and measured daily; assay type: organism-based; settings: in vivo, 168 h, dose 10-50 mg/kg, time 7 day
# Hs-578T [5] = test: Induction of apoptosis in human Hs-578T cells assessed as increase in caspase-8 protein expression at IC50 measured after 24 hrs by Western blot analysis; assay type: functional, cell-based
# Hs-578T [6] = test: Induction of apoptosis in human Hs-578T cells assessed as increase in BID protein expression at IC50 measured after 24 to 48 hrs by Western blot analysis; assay type: functional, cell-based; settings: time 24-48 hrs
# [7] = Toxicity in wild type C57BL/6J mouse assessed as effect on body position at 10 to 50 mg/kg, ip administered daily for 7 days and measured daily; assay type: organism-based; settings: in vivo, 168 h, dose 10-50 mg/kg, time 7 day
# [8] = Toxicity in wild type C57BL/6J mouse assessed as effect on eyelid opening at 10 to 50 mg/kg, ip administered daily for 7 days and measured daily; assay type: organism-based; settings: in vivo, 168 h, dose 10-50 mg/kg, time 7 day
# [9] = Toxicity in wild type C57BL/6J mouse assessed as effect on grooming at 10 to 50 mg/kg, ip administered daily for 7 days and measured daily; assay type: organism-based; settings: in vivo, 168 h, dose 10-50 mg/kg, time 7 day
# [10] = Toxicity in wild type C57BL/6J mouse assessed as piloerection at 10 to 50 mg/kg, ip administered daily for 7 days and measured daily; assay type: organism-based; settings: in vivo, 168 h, dose 10-50 mg/kg, time 7 day
# Homo sapiens = organism: Homo sapiens; test: Selectivity index, ratio of IC50 for human MCF-10A cells to IC50 for human Hs-578T cells
# [11] = Toxicity in wild type C57BL/6J mouse assessed as effect on spontaneous activity at 10 to 50 mg/kg, ip administered daily for 7 days and measured daily; assay type: organism-based; settings: in vivo, 168 h, dose 10-50 mg/kg, time 7 day
# Hs-578T [12] = test: Induction of cell cycle arrest in human Hs-578T cells assessed as accumulation of cells at S phase at IC50 measured after 48 hrs by RNase/PI staining based flow cytometry analysis; assay type: functional
# Hs-578T [13] = test: Induction of cell cycle arrest in human Hs-578T cells assessed as increase in G2/M phase cell population at IC50 measured after 24 hrs by RNase/PI staining based flow cytometry analysis; assay type: functional
# MDA-MB-231 [14] = test: Cytotoxicity against human MDA-MB-231 cells assessed as cell viability at 30 uM incubated for 72 hrs by SRB assay relative to control; assay type: functional; settings: read-out: Activity
# [15] = Toxicity in wild type Caenorhabditis elegans N2 assessed as effect on food consumption at 0.0001 to 50 uM measured daily for 7 days by food clearance assay; settings: 168 h, dose 0.0001-50 µM, time 7 day
# Hs-578T [16] = test: Cytotoxicity against human Hs-578T cells assessed as reduction in cell viability at 10 uM incubated for 72 hrs by SRB assay relative to control; assay type: functional
# [17] = Toxicity in wild type C57BL/6J mouse assessed as effect on fur quality at 10 to 50 mg/kg, ip administered daily for 7 days and measured daily; assay type: organism-based; settings: in vivo, 168 h, dose 10-50 mg/kg, time 7 day
# Hs-578T [18] = test: Cytotoxicity against human Hs-578T cells assessed as reduction in cell proliferation at 0.5 times IC50 measured after 48 hrs by BrdU incorporation assay relative to control; assay type: functional; design: scale not given: the % may be the effect or the level left
# Hs-578T [19] = test: Induction of apoptosis in human Hs-578T cells assessed as reduction in viable cells at IC50 measured after 24 to 48 hrs by Annexin V-FITC/PI staining based flow cytometry analysis; assay type: functional, cell-based; settings: time 24-48 hrs
# Hs-578T [20] = test: Induction of apoptosis in human Hs-578T cells assessed as increase in early apoptotic cells at IC50 measured after 24 to 48 hrs by Annexin V-FITC/PI staining based flow cytometry analysis; assay type: functional, cell-based; settings: time 24-48 hrs
# Hs-578T [21] = test: Induction of cell cycle arrest in human Hs-578T cells assessed as accumulation of cells at S phase at IC50 measured after 24 hrs by RNase/PI staining based flow cytometry analysis; assay type: functional
# [22] = Toxicity in wild type C57BL/6J mouse assessed as straub tail reaction at 10 to 50 mg/kg, ip administered daily for 7 days and measured daily; assay type: organism-based; settings: in vivo, 168 h, dose 10-50 mg/kg, time 7 day
# [23] = Toxicity in wild type C57BL/6J mouse assessed as effect on hydration at 10 to 50 mg/kg, ip administered daily for 7 days and measured daily; assay type: organism-based; settings: in vivo, 168 h, dose 10-50 mg/kg, time 7 day
# MCF7 = test: Cytotoxicity against human MCF7 cells assessed as cell viability at 10 uM incubated for 72 hrs by SRB assay relative to control; assay type: functional; settings: read-out: Activity
# MDA-MB-231 [24] = test: Cytotoxicity against human MDA-MB-231 cells assessed as cell viability at 10 uM incubated for 72 hrs by SRB assay relative to control; assay type: functional; settings: read-out: Activity
# Hs-578T [25] = test: Induction of apoptosis in human Hs-578T cells assessed as increase in early apoptotic cells at IC50 measured after 48 hrs by Annexin V-FITC/PI staining based flow cytometry analysis relative to control; assay type: functional
# [26] = Toxicity in wild type C57BL/6J mouse assessed as effect on body curvature at 10 to 50 mg/kg, ip administered daily for 7 days and measured daily; assay type: organism-based; settings: in vivo, 168 h, dose 10-50 mg/kg, time 7 day
# [27] = Toxicity in wild type C57BL/6J mouse assessed as clasping at 10 to 50 mg/kg, ip administered daily for 7 days and measured daily; assay type: organism-based; settings: in vivo, 168 h, dose 10-50 mg/kg, time 7 day
# [28] = Toxicity in wild type C57BL/6J mouse assessed as mean food intake at 50 mg/kg, ip administered daily for 7 days; assay type: organism-based; settings: in vivo, 168 h, time 7 day
# Hs-578T [29] = test: Cytotoxicity against human Hs-578T cells assessed as cell viability at 10 uM incubated for 72 hrs by SRB assay relative to control; assay type: functional; settings: read-out: Activity
# [30] = Toxicity in wild type C57BL/6J mouse assessed as reduction in body weight at 10 to 50 mg/kg, ip administered daily for 7 days; assay type: organism-based; settings: in vivo, 168 h, dose 10-50 mg/kg, time 7 day
# Hs-578T [31] = test: Induction of cell cycle arrest in human Hs-578T cells assessed as reduction in G0/G1 cell population at IC50 measured after 24 hrs by RNase/PI staining based flow cytometry analysis; assay type: functional
# Hs-578T [32] = test: Cytotoxicity against human Hs-578T cells assessed as reduction in cell proliferation at IC50 measured after 48 hrs by BrdU incorporation assay relative to control; assay type: functional; design: scale not given: the % may be the effect or the level left
# [33] = Toxicity in wild type C57BL/6J mouse assessed as mean water intake per day at 10 to 50 mg/kg, ip administered daily for 7 days; assay type: organism-based; settings: in vivo, 168 h, dose 10-50 mg/kg, time 7 day
# [34] = Toxicity in wild type C57BL/6J mouse assessed as mean food intake at 10 mg/kg, ip administered daily for 7 days; assay type: organism-based; settings: in vivo, 168 h, time 7 day
# [35] = Toxicity in wild type C57BL/6J mouse assessed as effect on respiratory rate at 10 to 50 mg/kg, ip administered daily for 7 days and measured daily; assay type: organism-based; settings: in vivo, 168 h, dose 10-50 mg/kg, time 7 day
# [36] = Toxicity in wild type C57BL/6J mouse assessed as effect on body temperature at 10 to 50 mg/kg, ip administered daily for 7 days; assay type: organism-based; settings: in vivo, 168 h, dose 10-50 mg/kg, time 7 day
structure (smiles),measurement,setting,value
Brc1ccc2c(c1)-c1cc(-c3ccccc3)nc3c1C(N=CN3c1ccccc1)O2 (stereo not drawn),Activity,Hs-578T [1],Active
same,Activity,[2],Non-Toxic
same,IC50,Hs-578T [3],8.63 µM
same,Activity,[4],Non-Toxic
same,Activity,Hs-578T [5],Active
same,Activity,Hs-578T [6],Active
same,Activity,[7],Non-Toxic
same,Activity,[8],Non-Toxic
same,Activity,[9],Non-Toxic
same,Activity,[10],Non-Toxic
same,Ratio IC50,Homo sapiens,3.26
same,Activity,[11],Non-Toxic
same,Activity,Hs-578T [12],Active
same,Activity,Hs-578T [13],Active
same,viability at 30 µM,MDA-MB-231 [14],40.5%
same,Activity,[15],Non-Toxic
same,Activity,Hs-578T [16],~50%
same,Activity,[17],Non-Toxic
same,Activity,Hs-578T [18],10%
same,Activity,Hs-578T [19],Active
same,Activity,Hs-578T [20],Active
same,Activity,Hs-578T [21],inactive
same,Activity,[22],Non-Toxic
same,Activity,[23],Non-Toxic
same,viability at 10 µM,MCF7,58%
same,viability at 10 µM,MDA-MB-231 [24],49.9%
same,Activity,Hs-578T [25],~50%
same,Activity,[26],Non-Toxic
same,Activity,[27],Non-Toxic
same,Activity,[28],2.94 g/day
same,viability at 10 µM,Hs-578T [29],50.4%
same,Activity,[30],Non-Toxic
same,Activity,Hs-578T [31],Active
same,Activity,Hs-578T [32],35%
same,Activity,[33],~ 4 ml
same,Activity,[34],~ 3 g/day
same,Activity,[35],Non-Toxic
same,Activity,[36],Non-Toxic
